Assay results taken from patent publication US20180110824A1, “Macrocyclic Modulators of the Ghrelin Receptor” (Ocera Therapeutics, Inc., priority 2016, published 2018).
Where two headings read alike, the source gives them in different places.

Target: T1, human growth hormone secretagogue receptor (hGHS-R1a) (Homo sapiens, UniProt Q92847)
T1 construct: purchased PerkinElmer BioSignal #RBHGHSM; host or cells: HEK-293, stably transfected
Test: Competitive radioligand binding assay (ghrelin receptor), [125I]-ghrelin displacement on GHS-R/HEK 293 membranes;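 as to Binding Activity at the Human Ghrelin Receptor (Ki): symbols B 10-100 nM C 0.1-1 µM D 1-10 µM F above 1 µM G above 10 µM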
Procedure: The competitive binding assay at the human growth hormone secretagogue receptor (hGHS-R1a) was carried out analogously to assays described in the literature.
Multiscreen Harvest plates-GF/C (Millipore, #MAHFC1H60) • 4. […] Bottom seal (Millipore, #MATAH0P00) • 7. […] Binding Buffer: 25 mM Hepes (pH 7.4), 1 mM CaCl2, 5 mM MgCl2, 2.5 mM EDTA, 0.4% BSA
Competition experiments were performed in a 300 μl filtration assay format. • 1. 220 μL of membranes diluted in binding buffer • 2. 40 μL of compound diluted in binding buffer • 3.
Compounds were provided frozen on dry ice at a stock concentration of 10 mM diluted in 100% DMSO and stored at −80° C. until the day of testing. On the test day, compounds were allowed to thaw at rt O/N and then diluted in assay buffer according to the desired test concentrations. Under these conditions, the maximal final DMSO concentration in the assay was 0.1%.
Plates were sealed with TopSeal-A, vortexed gently and incubated at rt for 30 min. The reaction was arrested by filtering samples through Multiscreen Harvest plates (pre-soaked in 0.5% polyethyleneimine) using a Tomtec Harvester, washed 9 times with 500 μL of cold 50 mM Tris-HCl (pH 7.4, 4° C.), and then plates were air-dried in a fumehood 30 min. A bottom seal was applied to the plates prior to the addition of 25 μL of MicroScint-0 to each well. […] Results were expressed as counts per minute (cpm).
Data were analyzed by GraphPad Prism (GraphPad Software, San Diego, Calif.) using […] non-linear regression analysis.
where total and non-specific binding represent the cpm obtained in the absence or presence of 1 μM ghrelin, respectively.
• 1. Binding performed on membranes prepared from HEK293 expressing the transfected, cloned human ghrelin receptor (hGHS-R1a). • 2. […] Ghrelin (unlabeled, 1 μM) was used to determine non-specific binding. • 4.

[1] = Binding activity at the human ghrelin receptor, [125I]-ghrelin displacement, read-out: Ki
[2] = [125I]-ghrelin displacement, GHS-R/HEK 293 membranes, class symbols, read-out: Binding Activity at the Human Ghrelin Receptor (Ki)
[3] = Table 3B, binding activity at the human ghrelin receptor, read-out: Ki

T1 sequence (Q92847 whole entry): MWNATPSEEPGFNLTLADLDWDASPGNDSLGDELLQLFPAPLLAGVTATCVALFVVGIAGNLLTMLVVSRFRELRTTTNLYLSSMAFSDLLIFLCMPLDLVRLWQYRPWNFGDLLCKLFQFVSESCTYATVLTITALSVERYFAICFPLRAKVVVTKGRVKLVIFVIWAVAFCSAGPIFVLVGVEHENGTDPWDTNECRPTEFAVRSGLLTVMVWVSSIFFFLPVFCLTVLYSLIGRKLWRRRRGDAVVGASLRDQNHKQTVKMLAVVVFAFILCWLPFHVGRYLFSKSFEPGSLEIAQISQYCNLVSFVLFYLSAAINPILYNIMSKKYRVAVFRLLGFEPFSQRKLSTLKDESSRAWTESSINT

Row | Ki [2] | Ki [3] | Compound | further results
1 |  |  | O=C1NC2(CCCC2)C(=O)N[C@@H](Cc2ccccc2)C(=O)NC/C=C/c2ccccc2OCCN[C@H]1Cc1ccc2ccccc2c1 [compound 131] | Ki [1]: 100 to 1000 nM
2 |  |  | O=C1NC2(CCCC2)C(=O)N[C@@H](Cc2ccccc2)C(=O)NC/C=C/c2ccccc2OCCN[C@H]1Cc1cscn1 [compound 134] | Ki [1]: 100 to 1000 nM
3 |  |  | O=C1NC2(CCCC2)C(=O)N[C@@H](Cc2ccccc2)C(=O)NC/C=C/c2ccccc2OCCN[C@H]1Cc1cccs1 [compound 135] | Ki [1]: 100 to 1000 nM
4 |  |  | CCC[C@@H]1NCCOc2ccccc2/C=C/CNC(=O)[C@H](Cc2ccccc2)NC(=O)C2(CCCC2)NC1=O [compound 137] | Ki [1]: 10 to 100 nM
5 |  |  | CC(C)C1NCCOc2ccccc2/C=C/CNC(=O)C(Cc2ccccc2)NC(=O)C2(Cc3ccccc3C2)NC1=O (stereo not shown) [compound 142] | Ki [1]: 100 to 1000 nM
6 |  |  | CC(C)C1NCCOc2ccccc2/C=C/CNC(=O)C(Cc2ccccc2)NC(=O)C2(CCSCC2)NC1=O (stereo not shown) [compound 143] | Ki [1]: 100 to 1000 nM
7 |  |  | CC[C@H](C)[C@@H]1NCCOc2ccccc2CCCNC(=O)[C@@H](Cc2ccccc2)NC(=O)[C@@H](C(C)C)N(C)C1=O [compound 144] | Ki [1]: 100 to 1000 nM
8 |  |  | CC[C@@H](C)[C@@H]1C(=O)N[C@H](Cc2ccccc2)C(=O)NCCCc2ccccc2OCCN[C@@H]([C@@H](C)CC)C(=O)N1C [compound 149] | Ki [1]: 1000 to 10000 nM
9 | > 1000 nM |  | CC(C)C[C@@H]1NCCOc2ccccc2/C=C/CNC(=O)[C@H](C(c2ccccc2)c2ccccc2)NC(=O)C2(CCCC2)NC1=O [compound 158] | 
10 | > 10000 nM |  | CC(C)C[C@@H]1NCCOc2ccccc2/C=C/CNC(=O)[C@H](Cc2cscn2)NC(=O)C2(CCCC2)NC1=O [compound 163] | 
11 | 100 to 1000 nM |  | CC[C@H](C)[C@@H]1NCCCc2ccccc2CCNC(=O)[C@@H](Cc2ccccc2)NC(=O)[C@@H](C)N(C)C1=O [compound 179] | 
12 | 100 to 1000 nM |  | CC[C@H](C)[C@@H]1NCCCCc2ccccc2CCNC(=O)[C@@H](Cc2ccccc2)NC(=O)[C@@H](C)N(C)C1=O [compound 180] | 
13 | 100 to 1000 nM |  | CC[C@H](C)[C@@H]1NCCOCC=CCNC(=O)[C@@H](Cc2ccccc2)NC(=O)[C@@H](C)N(C)C1=O [compound 185] | 
14 | 100 to 1000 nM |  | CC[C@H](C)[C@@H]1NCCc2ccccc2C=CCNC(=O)[C@@H](Cc2ccccc2)NC(=O)[C@@H](C)N(C)C1=O [compound 187] | 
15 | 10 to 100 nM |  | CC(C)[C@@H]1NCCOc2ccccc2/C=C/CNC(=O)[C@H](Cc2ccccc2)NC(=O)C2(CCCC2)NC1=O [compound 200] | 
16 | > 10000 nM |  | CCC[C@H]1C(=O)N(C)[C@H](C)C(=O)N[C@H](Cc2ccccc2)C(=O)NCCCc2ccccc2OCCN1C(C)=O [compound 202] | 
17 | > 10000 nM |  | CC(=O)N1CCOc2ccccc2/C=C/CNC(=O)[C@H](Cc2ccccc2)NC(=O)C2(CCCC2)NC(=O)[C@@H]1CC(C)C [compound 204] | 
18 | > 10000 nM |  | CC(C)C1NCCOc2ccccc2CCCNC(=O)C(Cc2ccccc2)NC(=O)C2(CCNCC2)NC1=O (stereo not shown) [compound 207] | 
19 | > 1000 nM |  | O=C1NC2(CCCC2)C(=O)N[C@@H](Cc2ccccc2)C(=O)NC/C=C/c2ccccc2OCCN[C@H]1Cc1ccccn1 [compound 210] | 
20 | > 1000 nM |  | CC(C)[C@@H]1NCCOc2ccccc2/C=C/CNC(=O)[C@H](Cc2ccccc2)NC(=O)C2(CCNCC2)NC1=O [compound 211] | 
21 | 1000 to 10000 nM |  | CCC(C)C1NCCOc2ccccc2CCCNC(=O)C(Cc2ccccc2)NC(=O)C(COC(C)(C)C)NC1=O (stereo not shown) [compound 215] | 
22 | 1000 to 10000 nM |  | CC(C)[C@@H]1NCCOc2ccccc2CCCNC(=O)[C@H](Cc2ccccc2)NC(=O)C2(CC2)NC1=O [compound 216] | 
23 | 10 to 100 nM |  | O=C1NC/C=C/c2ccccc2OCCNC2(CCCCC2)C(=O)NC2(CCCC2)C(=O)N[C@H]1Cc1ccccc1 [compound 218] | 
24 | 100 to 1000 nM |  | O=C1NC2(CCCC2)C(=O)N[C@@H](Cc2ccccc2)C(=O)NC/C=C/c2ccccc2OCCN[C@H]1Cc1cnc[nH]1 [compound 219] | 
25 | 1000 to 10000 nM |  | CCC[C@@H]1NCCOc2ccccc2CCCNC(=O)[C@@H](Cc2ccccc2)NC(=O)[C@@H]2CCCN2C1=O [compound 220] | Ki (Table 3E, read-out: Ki): 1000 to 10000 nM
26 | 1000 to 10000 nM |  | CC(C)C[C@@H]1NCCOc2ccccc2CCCNC(=O)[C@H](Cc2ccccc2)NC(=O)[C@@H]2CCCN2C1=O [compound 222] | Ki (Table 3E, read-out: Ki): 1000 to 10000 nM
27 | 1000 to 10000 nM |  | CC(C)C[C@@H]1NCCOc2ccccc2CCCNC(=O)[C@H](Cc2ccccc2)NC(=O)[C@H]2CCCN2C1=O [compound 223] | Ki (Table 3E, read-out: Ki): 1000 to 10000 nM

Row | Ki [2] | Ki [3] | Compound | further results
28 | 100 to 1000 nM |  | C[C@@H]1C(=O)N[C@H](Cc2ccccc2)C(=O)NCCCc2ccccc2OCCN2CCC[C@H]2C(=O)N1C [compound 225] | Ki (Table 3E, read-out: Ki): 100 to 1000 nM
29 |  | 10 to 100 nM | O=C1NC2(CCCC2)C(=O)N[C@@H](Cc2cccc(Cl)c2)C(=O)NC/C=C/c2ccccc2OCCN[C@H]1Cc1ccc(O)cc1 [compound 301] | 
30 |  | 100 to 1000 nM | C[C@@H]1C(=O)N[C@H](Cc2ccc(F)cc2)C(=O)NCCC=CCOCCN[C@@H](C2CC2)C(=O)N1C [compound 307] | 
31 |  | 0.1 to 10 nM | C[C@@H]1C(=O)N[C@H](Cc2ccc(F)cc2)C(=O)NCCCc2ccccc2OCCN[C@@H](C2CC2)C(=O)N1C [compound 309] | 
32 |  | 10 to 100 nM | C[C@@H]1C(=O)N[C@H](Cc2ccsc2)C(=O)NCCCc2ccccc2OCCN[C@@H](C2CC2)C(=O)N1C [compound 310] | 
33 |  | 0.1 to 10 nM | C[C@@H]1C(=O)N[C@H](Cc2ccccc2F)C(=O)NCCCc2ccccc2OCCN[C@@H](C2CC2)C(=O)N1C [compound 312] | 
34 |  | 10 to 100 nM | C[C@@H]1C(=O)N[C@H](Cc2cccc(F)c2)C(=O)NCCCc2ccccc2OCCN[C@@H](C2CC2)C(=O)N1C [compound 313] | 
35 |  | 0.1 to 10 nM | C[C@@H]1C(=O)N[C@H](Cc2ccc(Cl)c(Cl)c2)C(=O)NCCCc2ccccc2OCCN[C@@H](C2CC2)C(=O)N1C [compound 315] | 
36 |  | 10 to 100 nM | C[C@@H]1C(=O)N[C@H](Cc2ccc(F)c(F)c2)C(=O)NCCCc2ccccc2OCCN[C@@H](C2CC2)C(=O)N1C [compound 316] | 
37 |  | 10 to 100 nM | C[C@@H]1C(=O)N[C@H](Cc2cc(F)cc(F)c2)C(=O)NCCCc2ccccc2OCCN[C@@H](C2CC2)C(=O)N1C [compound 317] | 
38 |  | 0.1 to 10 nM | C[C@@H]1C(=O)N[C@H](Cc2ccc(Br)cc2)C(=O)NCCCc2ccccc2OCCN[C@@H](C2CC2)C(=O)N1C [compound 319] | 
39 |  | 0.1 to 10 nM | C[C@@H]1C(=O)N[C@H](Cc2ccc(I)cc2)C(=O)NCCCc2ccccc2OCCN[C@@H](C2CC2)C(=O)N1C [compound 320] | 
40 |  | 10 to 100 nM | C[C@@H]1C(=O)N[C@H](Cc2ccc(C#N)cc2)C(=O)NCCCc2ccccc2OCCN[C@@H](C2CC2)C(=O)N1C [compound 321] | 
41 |  | 100 to 1000 nM | COc1ccc(C[C@H]2NC(=O)[C@@H](C)N(C)C(=O)[C@H](C3CC3)NCCOc3ccccc3CCCNC2=O)cc1OC [compound 323] | 
42 |  | 10 to 100 nM | CC[C@H](C)[C@@H]1NCCOc2ccccc2/C=C/CNC(=O)[C@H](Cc2cccc(Br)c2)NC(=O)C2(CCCC2)NC1=O [compound 326] | 
43 |  | 10 to 100 nM | CC[C@H](C)[C@@H]1NCCOc2ccccc2/C=C/CNC(=O)[C@H](Cc2cccc(C#N)c2)NC(=O)C2(CCCC2)NC1=O [compound 329] | 
44 |  | 100 to 1000 nM | CCC(C)C1NCCOc2ccccc2C=CCNC(=O)C(Cc2ccsc2)NC(=O)C2(CCCC2)NC1=O (stereo not shown) [compound 333] | 
45 |  | 10 to 100 nM | CO[C@H](C)[C@@H]1NCCOc2ccccc2CCCNC(=O)[C@@H](Cc2ccc(F)cc2)NC(=O)[C@@H](C)N(C)C1=O [compound 335] | 
46 |  | 100 to 1000 nM | COC[C@@H]1NCCOc2ccccc2CCCNC(=O)[C@@H](Cc2ccc(F)cc2)NC(=O)[C@@H](C)N(C)C1=O [compound 336] | 
47 |  | 100 to 1000 nM | C[C@@H]1C(=O)N[C@H](Cc2ccc(F)cc2)C(=O)NCCCc2ccccc2OCCN[C@@H](CN)C(=O)N1C [compound 337] | 
48 |  | 100 to 1000 nM | C[C@@H]1C(=O)N[C@H](Cc2ccc(F)cc2)C(=O)NCCCc2ccccc2OCCN[C@@H](CCN)C(=O)N1C [compound 338] | 
49 |  | 100 to 1000 nM | C[C@@H]1C(=O)N[C@H](Cc2ccc(F)cc2)C(=O)NCCCc2ccccc2OCCN[C@@H](CCCN)C(=O)N1C [compound 339] | 
50 |  | 10 to 100 nM | CSCC[C@@H]1NCCOc2ccccc2CCCNC(=O)[C@@H](Cc2ccc(F)cc2)NC(=O)[C@@H](C)N(C)C1=O [compound 340] | 
51 |  | 10 to 100 nM | O=C1NC2(CCCC2)C(=O)N[C@@H](Cc2cccc(Cl)c2)C(=O)NC/C=C/c2ccccc2OCCN[C@H]1Cc1ccsc1 [compound 341] | 
52 |  | 100 to 1000 nM | N#Cc1ccccc1C[C@@H]1NCCOc2ccccc2/C=C/CNC(=O)[C@H](Cc2cccc(Cl)c2)NC(=O)C2(CCCC2)NC1=O [compound 342] | 
53 |  | 100 to 1000 nM | COC[C@@H]1NCCOc2ccccc2/C=C/CNC(=O)[C@H](Cc2cccc(Cl)c2)NC(=O)C2(CCCC2)NC1=O [compound 344] | 
54 |  | 100 to 1000 nM | O=C1NC/C=C/c2ccccc2OCCN[C@@H](C2CC2)C(=O)NC2(CCCC2)C(=O)N[C@H]1Cc1cccc(Cl)c1 [compound 346] | 
